Reference: PubChem BioAssay (NCI)
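Dose response: 5 concentrations. Exposure: 48 h. Format: 96-well plates. Endpoint: linear interpolation; highest concentration if not reached. TGI denotes the concentration required for complete inhibition of growth.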

How the values were obtained:
Assay in all cases: NCI-60 cell line screen, 48 h
SR leukemia = tested on: SR leukemia
IGROV1 ovarian = tested on: IGROV1 ovarian
RPMI-8226 leukemia = tested on: RPMI-8226 leukemia
SW-620 colon = tested on: SW-620 colon
UACC-62 melanoma = tested on: UACC-62 melanoma
MDA-MB-231 breast = tested on: MDA-MB-231 breast
RXF 393 renal = tested on: RXF 393 renal
SN12C renal = tested on: SN12C renal
K-562 leukemia = tested on: K-562 leukemia
NCI-H460 lung = tested on: NCI-H460 lung
A549 NSCLC = tested on: A549 NSCLC
KM12 colon = tested on: KM12 colon

| Compound | TGI (SR leukemia) [µM] | TGI (IGROV1 ovarian) [µM] | TGI (RPMI-8226 leukemia) [µM] | TGI (SW-620 colon) [µM] | TGI (UACC-62 melanoma) [µM] | TGI (MDA-MB-231 breast) [µM] | TGI (RXF 393 renal) [µM] | TGI (SN12C renal) [µM] | TGI (K-562 leukemia) [µM] | TGI (NCI-H460 lung) [µM] | TGI (A549 NSCLC) [µM] | TGI (KM12 colon) [µM] |
| --- | --- | --- | --- | --- | --- | --- | --- | --- | --- | --- | --- | --- |
| CC(=O)OCC1OC(n2c(C)c(N=Nc3ccc(Cl)cc3)c(C)c(C#N)c2=S)C(OC(C)=O)C(OC(C)=O)C1OC(C)=O (configuration not stated) | > 100 | > 100 | > 100 | > 100 | > 100 | > 100 | 40.7 | > 100 | > 100 | > 100 | > 100 | > 100 |
| NCCCN(CCCN)CCc1cn(C(=O)c2ccccc2)cn1 | 13.9 | 17.4 | 10 | 38.2 | 23 | 28.8 | 8.89 | 26.2 | > 37.4 | 39 | 26.7 | 22.2 |
| CCOC(=O)C(Cc1ccc(O)cc1)Nc1nc(=O)c2c(=O)oc(Cl)cc2o1 (configuration not stated) | 7.53 | 19.4 | 8.59 | 15.2 | 28.5 | 23.1 | 16 | 36.8 | 31.6 | > 57.2 | 34.7 | 22.5 |
| CN1CC=C(c2c(N)nc(N)[nH]c2=O)CC1 | > 100 | > 100 | > 100 | > 100 | > 100 | > 100 | > 100 | > 100 | > 100 | > 100 | > 100 | > 100 |
| N[C@H](Cc1ccc2oc3cc(=O)c4ccccc4c-3nc2c1)C(=O)O | > 100 | > 100 | 83.8 | > 100 | 62 | > 100 | > 100 | > 100 | 71.2 | > 100 | > 100 | > 100 |
| Cn1nnnc1SC(F)(F)c1nc2ccccc2o1 | > 100 | > 100 | > 100 | > 100 | > 100 | > 100 | > 100 | > 100 | > 100 | > 100 | > 100 | > 100 |
